How the values were obtained:
Type in all cases: cell-based
[1] = tested on: Jurkat cells (acute lymphoblastic leukemia); assay: MTT cell viability, leukemia cells, TTD and Acla A alone and combined; conditions: Homo sapiens, 72 h, MTT
Description: (§1) Well-growing leukemia cells were obtained and inoculated into wells of a 96-well cell culture plate at 5000 cells/well. Individual compounds of various concentrations were added, mixed uniformly, and incubated (5% CO2) at 37° C. for 72 hours. Then the cell viability was determined by the MTT method.
(§2) b) Determine the inhibitory effects of TTD in combination with Ada A on leukemia cells in vitro. The pretreatment of the cells was the same as in a). The control group was not treated with the compound while administered. […] After 72 hours of incubation, the MTT method was used for the determination of cell viability. The cell viability of the control group was set to 100% in this experiment, and the TTD, Ada A single drug and combined effects on cell viability (%) were calculated.

[2] = tested on: k562/ADR leukemia cells (drug-resistant chronic myeloid leukemia); assay: as above; conditions: Homo sapiens, k562/ADR, 72 h, MTT
Description: as §1, §2

[3] = tested on: kasumi-1 cells (acute myeloid leukemia M2 type); assay: as above; conditions: Homo sapiens, 72 h, MTT
Description: as §1, §2

[4] = tested on: RPMI 8226 (multiple myeloma); assay: MTT cell viability, lymphoma and myeloma cells; conditions: Homo sapiens; RPMI 8226, single compound, 72 h, MTT; read-out: concentration (IC50 value of 72 hours)
Description: (§3) Well-growing cells of above were obtained and inoculated into wells of a 96-well cell culture plate at 5000 cells/well. Separate compounds of various concentrations were added, mixed uniformly, and incubated (5% CO2) at 37° C. for 72 hours. Then the cell viability was determined by the MTT method.
(§4) b) Determine the inhibitory effects of TTD in combination with Ada A on the above cells. The pretreatment of the cells was the same as in a). The control group was not treated with the compound while administered. […] As to the combination group, two compounds were added together into the same group of wells, with the fmal concentrations being the concentrations to which the IC50 values of the two single drugs correspond. After 72 hours of incubation, the MTT method was used for the determination of cell viability. The cell viability of the control group was set to 100% in this experiment, and the TTD, Ada A single drug and combined effects on cell viability (%) were calculated.

[5] = tested on: Raji (human Burkitt lymphoma cells); assay: MTT cell viability, lymphoma and myeloma cells; conditions: 72 h, MTT
Description: as §3, §4

[6] = tested on: CaES-17 (esophageal cancer cell); assay: MTT cell viability, human solid tumor cells
Description: (§5) Well-growing cells of above were obtained and inoculated into wells of a 96-well cell culture plate at 5000 cells/well. Individual compounds of various concentrations were added, mixed uniformly, and incubated (5% CO2) at 37° C. for 72 hours. Then the cell viability was determined by the MTT method.
b) Determine the inhibitory effects of TTD in combination with Ada A on the human solid tumor cells. The pretreatment of the cells was the same as in a). The control group was not treated with the compound while administered. The two single-drug groups were added with respective active component to the concentration under which the IC50 of two compounds in a) achieve. As to the combination group, two compounds were added together into the same group of wells, with the fmal concentration being the concentration to which the IC50 of the single drugs correspond. After 72 hours of incubation, the MTT method was used for the determination of cell viability. The cell viability of the control group was set to 100% in this experiment, and the TTD, Ada A single drug and combined effects on cell viability (%) were calculated.

A549 (human lung cancer) = assay: MTT cell viability, human solid tumor cells; conditions: 72 h, MTT
Description: as §5
as §4, with “human solid tumor” for “above”, “concentration” for “concentrations”, “IC50” for “IC50 values”, “the” for “the two”

[7] = tested on: CNE (nasopharyngeal carcinoma cell); assay: MTT cell viability, human solid tumor cells; conditions: CNE, 72 h, MTT
Description: as §5
as §4, with “human solid tumor” for “above”, “concentration” for “concentrations”, “IC50” for “IC50 values”, “the” for “the two”

[8] = tested on: Hep G2 (human hepatoma carcinoma cell); assay: MTT cell viability, human solid tumor cells; conditions: 72 h, MTT
Description: as §5
as §4, with “human solid tumor” for “above”, “concentration” for “concentrations”, “IC50” for “IC50 values”, “the” for “the two”

[9] = tested on: Hep2 (laryngeal carcinoma); assay: MTT cell viability, human solid tumor cells; conditions: 72 h, MTT
Description: as §5
as §4, with “human solid tumor” for “above”, “concentration” for “concentrations”, “IC50” for “IC50 values”, “the” for “the two”

MG63 (osteosarcoma) = assay: MTT cell viability, human solid tumor cells; conditions: 72 h, MTT
Description: as §5
as §4, with “human solid tumor” for “above”, “concentration” for “concentrations”, “IC50” for “IC50 values”, “the” for “the two”

[10] = tested on: MGC-803 (human gastric cancer cell); assay: MTT cell viability, human solid tumor cells; conditions: 72 h, MTT
Description: as §5
as §4, with “human solid tumor” for “above”, “concentration” for “concentrations”, “IC50” for “IC50 values”, “the” for “the two”

PC-3 (prostate cancer) = assay: MTT cell viability, human solid tumor cells; conditions: 72 h, MTT
Description: as §5
as §4, with “human solid tumor” for “above”, “concentration” for “concentrations”, “IC50” for “IC50 values”, “the” for “the two”

[11] = tested on: Panc-1 (pancreatic cancer); assay: MTT cell viability, human solid tumor cells; conditions: 72 h, MTT
Description: as §5
as §4, with “human solid tumor” for “above”, “concentration” for “concentrations”, “IC50” for “IC50 values”, “the” for “the two”

[12] = tested on: SK-OV-3 (ovarian cancer cell); assay: MTT cell viability, human solid tumor cells; conditions: 72 h, MTT
Description: as §5
as §4, with “human solid tumor” for “above”, “concentration” for “concentrations”, “IC50” for “IC50 values”, “the” for “the two”

[13] = tested on: SPC-A-1 (human lung adenocarcinoma cell); assay: MTT cell viability, human solid tumor cells; conditions: 72 h, MTT
Description: as §5
as §4, with “human solid tumor” for “above”, “concentration” for “concentrations”, “IC50” for “IC50 values”, “the” for “the two”

[14] = tested on: U87-MG (malignant glioma cell); assay: MTT cell viability, human solid tumor cells; conditions: U-87 MG, U87-MG, 72 h, MTT
Description: as §5
as §4, with “human solid tumor” for “above”, “concentration” for “concentrations”, “IC50” for “IC50 values”, “the” for “the two”

[15] = single compound, read-out: concentration (IC50 value of 72 hours)

COc1ccc2cc1Oc1ccc(cc1)C[C@H]1c3cc(c(OC)cc3CCN1C)Oc1c(OC)c(OC)cc3c1[C@H](C2)N(C)CC3 [TTD, tetrandrine] was tested, and the viability at 1.69 µg/mL ([1]; TTD 1.69 μg/mL, control = 100%, read-out: CV (cell viability)) was 52.3%, the IC50 [1, 15] was 1.69 µg/mL and the viability at 0.6 µg/mL ([2]; TTD 0.6 μg/mL, control = 100%, read-out: CV (cell viability)) was 48%. The IC50 [2, 15] was 0.6 µg/mL, the viability at 2 µg/mL ([3]; kasumi-1, TTD 2 μg/mL, control = 100%, read-out: CV (cell viability)) was 51.7% and the IC50 ([3]; kasumi-1, single compound, read-out: concentration (IC50 value of 72 hours)) was 2 µg/mL. It also gave an IC50 [4] of 0.3 µg/mL, a viability at 1 µg/mL ([5]; TTD 1 μg/mL, control = 100%, read-out: CV (cell viability)) of 46.9% and an IC50 [5, 15] of 1 µg/mL. It also gave a viability at 3.59 µg/mL ([6]; CaEs17, 72 h, read-out: CV (cell viability)) of 47.1%, an IC50 ([6]; CaEs17, CaES-17, single compound, 72 h, MTT, read-out: concentration (IC50 value of 72 hours)) of 3.59 µg/mL and a viability at 8.34 µg/mL (A549 (human lung cancer); A549, TTD 8.34 μg/mL, control = 100%, read-out: CV (cell viability)) of 47.6%. It also gave an IC50 (A549 (human lung cancer); A549, single compound, read-out: concentration (IC50 value of 72 hours)) of 8.34 µg/mL, a viability at 3 µg/mL ([7]; TTD 3 μg/mL, control = 100%, read-out: CV (cell viability)) of 51.9% and an IC50 [7, 15] of 3 µg/mL. The viability at 1.5 µg/mL ([8]; HepG2, Hep G2, TTD 1.5 μg/mL, control = 100%, read-out: CV (cell viability)) was 52.5%, the IC50 ([8]; HepG2, Hep G2, single compound, read-out: concentration (IC50 value of 72 hours)) was 1.5 µg/mL and the viability at 2.59 µg/mL ([9]; HEp-2, Hep2, TTD 2.59 μg/mL, control = 100%, read-out: CV (cell viability)) was 43.8%. For the same compound, the IC50 ([9]; HEp-2, Hep2, single compound, read-out: concentration (IC50 value of 72 hours)) was 2.59 µg/mL, the viability at 2 µg/mL (MG63 (osteosarcoma); MG-63, MG63, TTD 2 μg/mL, control = 100%, read-out: CV (cell viability)) was 40.8% and the IC50 (MG63 (osteosarcoma); MG-63, MG63, single compound, read-out: concentration (IC50 value of 72 hours)) was 2 µg/mL. It also gave a viability at 3 µg/mL ([10]; MGC-803, TTD 3 μg/mL, control = 100%, read-out: CV (cell viability)) of 50.9%, an IC50 ([10]; MGC-803, single compound, read-out: concentration (IC50 value of 72 hours)) of 3 µg/mL and a viability at 4.5 µg/mL (PC-3 (prostate cancer); PC-3, TTD 4.5 μg/mL, control = 100%, read-out: CV (cell viability)) of 47%. It also gave an IC50 (PC-3 (prostate cancer); PC-3, single compound, read-out: concentration (IC50 value of 72 hours)) of 4.5 µg/mL, a viability at 4.67 µg/mL ([11]; Panc-1, TTD 4.67 μg/mL, control = 100%, read-out: CV (cell viability)) of 52.3% and an IC50 ([11]; Panc-1, single compound, read-out: concentration (IC50 value of 72 hours)) of 4.67 µg/mL. For the same compound, the viability at 5 µg/mL ([12]; SK-OV-3, TTD 5 μg/mL, control = 100%, read-out: CV (cell viability)) was 55.9%, the IC50 ([12]; SK-OV-3, single compound, read-out: concentration (IC50 value of 72 hours)) was 5 µg/mL and the viability at 3.5 µg/mL ([13]; SPCA1, SPC-A-1, TTD 3.5 μg/mL, control = 100%, read-out: CV (cell viability)) was 52.5%. The IC50 ([13]; SPCA1, SPC-A-1, single compound, read-out: concentration (IC50 value of 72 hours)) was 3.5 µg/mL, the viability at 2.37 µg/mL ([14]; TTD 2.37 μg/mL, control = 100%, read-out: CV (cell viability)) was 47.7% and the IC50 [14, 15] was 2.37 µg/mL.
